Source: PubChem BioAssay AID292 (DTP/NCI, 2004)
Values joined by “and” are separate entries in the source; they are usually repeats but may differ in a detail not shown here. Equal values may be shown once. Inconclusive results and toxic doses are left out.

Tested on: B6C3F1 mice, ip Sarcoma M5076, median survival T/C
Assay: NCI In Vivo Anticancer Drug Screen. Data for tumor model Sarcoma M5076 (intraperitoneal) in B6C3F1 mice
Conditions: endpoint: median survival time, higher = longer survival
Procedure, shortened: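 Antitumour effect is judged in tumour-bearing mice by comparing survival after compound dosing against vehicle-only animals, reported as T/C.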

[1] = dose: 50.0 mg/kg/injection, schedule: Q04DX004 (ip), vehicle: saline with Tween-80
[2] = dose: 100.0 mg/kg/injection, schedule: Q04DX004 (ip), vehicle: saline with Tween-80
[3] = dose: 200.0 mg/kg/injection, schedule: Q04DX004 (ip), vehicle: saline with Tween-80
[4] = dose: 400.0 mg/kg/injection, schedule: Q04DX004 (ip), vehicle: saline with Tween-80
[5] = dose: 25.0 mg/kg/injection, schedule: Q04DX004 (ip), vehicle: saline with Tween-80
[6] = dose: 50.0 mg/kg/injection, schedule: Q04DX004 (ip), vehicle: Klucel (hydroxypropylcellulose) (HPC)
[7] = dose: 100.0 mg/kg/injection, schedule: Q04DX004 (ip), vehicle: Klucel (hydroxypropylcellulose) (HPC)

NC(=O)C1=NOC(C(N)=O)C1C1OC(CO)C(O)C1O (configuration not stated)
T/C (dose: 37.5 mg/kg/injection, schedule: Q04DX004 (ip), vehicle: water): 100 % of control
T/C (dose: 75.0 mg/kg/injection, schedule: Q04DX004 (ip), vehicle: water): 98 % of control
T/C (dose: 150.0 mg/kg/injection, schedule: Q04DX004 (ip), vehicle: water): 103 % of control
T/C (dose: 300.0 mg/kg/injection, schedule: Q04DX004 (ip), vehicle: water): 106 % of control
T/C (dose: 600.0 mg/kg/injection, schedule: Q04DX004 (ip), vehicle: water): 100 % of control

Clc1ccccc1C(Nc1cnccn1)Nc1cnccn1
T/C [1]: 105 % of control and 112 % of control
T/C [2]: 105 % of control
T/C [3]: 103 % of control and 109 % of control
T/C [4]: 110 % of control and 114 % of control
T/C (dose: 800.0 mg/kg/injection, schedule: Q04DX004 (ip), vehicle: saline with Tween-80): 100 % of control

COc1ccc(NC(=O)/N=C2\CN(C(=O)c3c(F)cccc3F)C(=O)N2c2ccc(OC)cc2)cc1
T/C (dose: 3.0 mg/kg/injection, schedule: Q04DX004 (ip), vehicle: saline with Tween-80): 95 % of control
T/C (dose: 6.0 mg/kg/injection, schedule: Q04DX004 (ip), vehicle: saline with Tween-80): 100 % of control
T/C (dose: 12.0 mg/kg/injection, schedule: Q04DX004 (ip), vehicle: saline with Tween-80): 102 % of control
T/C (dose: 24.0 mg/kg/injection, schedule: Q04DX004 (ip), vehicle: saline with Tween-80): 95 % of control
T/C (dose: 48.0 mg/kg/injection, schedule: Q04DX004 (ip), vehicle: saline with Tween-80): 95 % of control

Nc1ncnc2c1ncn2C1CC2[O][Sn]([c]3ccccc3)([c]3ccccc3)[O]CC2O1 (configuration not stated)
T/C (dose: 31.13 mg/kg/injection, schedule: Q04DX004 (ip), vehicle: distilled water + Tween-80): 95 % of control
T/C (dose: 62.5 mg/kg/injection, schedule: Q04DX004 (ip), vehicle: distilled water + Tween-80): 92 % of control
T/C (dose: 125.0 mg/kg/injection, schedule: Q04DX004 (ip), vehicle: distilled water + Tween-80): 101 % of control
T/C (dose: 250.0 mg/kg/injection, schedule: Q04DX004 (ip), vehicle: distilled water + Tween-80): 101 % of control
T/C (dose: 500.0 mg/kg/injection, schedule: Q04DX004 (ip), vehicle: distilled water + Tween-80): 104 % of control

COC(=O)[C@@]12OC[C@]34[C@H]([C@@H](O)[C@@H]1O)[C@@]1(C)CC(=O)C(OC(=O)CC(=O)OC5=C(C)[C@@H]6C[C@H]7OC(=O)[C@H](OC(=O)/C=C(\C)C(C)C)[C@H]8[C@]9(C(=O)OC)OC[C@]78[C@H]([C@@H](O)[C@@H]9O)[C@@]6(C)CC5=O)=C(C)[C@@H]1C[C@H]3OC(=O)[C@H](OC(=O)/C=C(\C)C(C)C)[C@@H]24
T/C (dose: 0.75 mg/kg/injection, schedule: Q04DX004 (ip), vehicle: saline + Tween-80 + alcohol): 108 % of control
T/C (dose: 1.5 mg/kg/injection, schedule: Q04DX004 (ip), vehicle: saline + Tween-80 + alcohol): 118 % of control
T/C (dose: 3.0 mg/kg/injection, schedule: Q04DX004 (ip), vehicle: saline + Tween-80 + alcohol): 118 % of control
T/C (dose: 6.0 mg/kg/injection, schedule: Q04DX004 (ip), vehicle: saline + Tween-80 + alcohol): 112 % of control

Cc1noc2nc(-c3ccccc3)cc(N3CCN(C)CC3)c12
T/C (dose: 25.0 mg/kg/injection, schedule: Q04DX004 (ip), vehicle: other): 95 % of control
T/C (dose: 50.0 mg/kg/injection, schedule: Q04DX004 (ip), vehicle: other): 105 % of control
T/C (dose: 100.0 mg/kg/injection, schedule: Q04DX004 (ip), vehicle: other): 99 % of control
T/C (dose: 200.0 mg/kg/injection, schedule: Q04DX004 (ip), vehicle: other): 97 % of control

CCc1c(C)c(SC)n(C)c(=O)c1C#N
T/C [1]: 111 % of control
T/C [2]: 111 % of control
T/C [3]: 111 % of control
T/C [4]: 96 % of control

CCN(CC)c1ccc2[nH]c3c(C(N)=O)cc(=O)c(=O)c=3oc2c1
T/C [5]: 105 % of control
T/C [1]: 108 % of control
T/C [2]: 106 % of control
T/C [3]: 96 % of control

CCOC(=O)Nc1cc(NC(C)/C(=N/O)c2ccccc2)c([N+](=O)[O-])c(N)n1 (configuration not stated)
T/C [6]: 99 % of control and 100 % of control
T/C [7]: 109 % of control and 123 % of control
T/C (dose: 172.8 mg/kg/injection, schedule: Q04DX004 (ip), vehicle: Klucel (hydroxypropylcellulose) (HPC)): 107 % of control
T/C (dose: 288.0 mg/kg/injection, schedule: Q04DX004 (ip), vehicle: Klucel (hydroxypropylcellulose) (HPC)): 119 % of control
T/C (dose: 400.0 mg/kg/injection, schedule: Q04DX004 (ip), vehicle: Klucel (hydroxypropylcellulose) (HPC)): 156 % of control
T/C (dose: 13333.3 mg/kg/injection, schedule: Q04DX004 (ip), vehicle: Klucel (hydroxypropylcellulose) (HPC)): 119 % of control

COc1cc(C(CC(C)=O)c2cc3c(cc2OC(C)=O)OCO3)cc(OC)c1OC (configuration not stated) (tested in a mixture with another compound)
T/C (dose: 27.0 mg/kg/injection, schedule: Q04DX004 (ip), vehicle: saline with Tween-80): 100 % of control
T/C (dose: 45.0 mg/kg/injection, schedule: Q04DX004 (ip), vehicle: saline with Tween-80): 101 % of control and 103 % of control
T/C (dose: 75.0 mg/kg/injection, schedule: Q04DX004 (ip), vehicle: saline with Tween-80): 111 % of control and 119 % of control
T/C (dose: 125.0 mg/kg/injection, schedule: Q04DX004 (ip), vehicle: saline with Tween-80): 119 % of control
T/C (dose: 208.3 mg/kg/injection, schedule: Q04DX004 (ip), vehicle: saline with Tween-80): 124 % of control

CCCCCCC1C(C#N)C(=O)NC(=O)C1C#N (configuration not stated)
T/C (dose: 40.63 mg/kg/injection, schedule: Q04DX004 (ip), vehicle: Klucel (hydroxypropylcellulose) (HPC)): 95 % of control
T/C (dose: 81.25 mg/kg/injection, schedule: Q04DX004 (ip), vehicle: Klucel (hydroxypropylcellulose) (HPC)): 94 % of control
T/C (dose: 162.5 mg/kg/injection, schedule: Q04DX004 (ip), vehicle: Klucel (hydroxypropylcellulose) (HPC)): 101 % of control
T/C (dose: 325.0 mg/kg/injection, schedule: Q04DX004 (ip), vehicle: Klucel (hydroxypropylcellulose) (HPC)): 92 % of control
T/C (dose: 650.0 mg/kg/injection, schedule: Q04DX004 (ip), vehicle: Klucel (hydroxypropylcellulose) (HPC)): 87 % of control

O=C1CN2Cc3c(sc4c3CCCC4)N=C2N1
T/C (dose: 37.5 mg/kg/injection, schedule: Q04DX004 (ip), vehicle: Klucel (hydroxypropylcellulose) (HPC)): 103 % of control
T/C (dose: 75.0 mg/kg/injection, schedule: Q04DX004 (ip), vehicle: Klucel (hydroxypropylcellulose) (HPC)): 104 % of control
T/C (dose: 150.0 mg/kg/injection, schedule: Q04DX004 (ip), vehicle: Klucel (hydroxypropylcellulose) (HPC)): 100 % of control
T/C (dose: 300.0 mg/kg/injection, schedule: Q04DX004 (ip), vehicle: Klucel (hydroxypropylcellulose) (HPC)): 103 % of control
T/C (dose: 600.0 mg/kg/injection, schedule: Q04DX004 (ip), vehicle: Klucel (hydroxypropylcellulose) (HPC)): 100 % of control

NC(=O)c1cc(Cl)nc2nc(Cl)nc(N)c12
T/C [5]: 100 % of control
T/C [1]: 97 % of control
T/C [2]: 99 % of control
T/C [3]: 96 % of control
T/C [4]: 93 % of control

[N-]=[N+]=CC(=O)CCC(NC(=O)OCc1ccccc1)C(=O)OCc1ccccc1 (configuration not stated)
T/C (dose: 25.0 mg/kg/injection, schedule: Q04DX004 (ip), vehicle: Klucel (hydroxypropylcellulose) (HPC)): 113 % of control
T/C [6]: 115 % of control
T/C [7]: 121 % of control
T/C (dose: 200.0 mg/kg/injection, schedule: Q04DX004 (ip), vehicle: Klucel (hydroxypropylcellulose) (HPC)): 121 % of control

COc1ccc(-n2[nH]c3c(cnc4ccccc43)c2=O)cc1
T/C (dose: 2.25 mg/kg/injection, schedule: Q04DX004 (ip), vehicle: saline with Tween-80): 93 % of control
T/C (dose: 4.5 mg/kg/injection, schedule: Q04DX004 (ip), vehicle: saline with Tween-80): 95 % of control
T/C (dose: 9.0 mg/kg/injection, schedule: Q04DX004 (ip), vehicle: saline with Tween-80): 94 % of control
T/C (dose: 18.0 mg/kg/injection, schedule: Q04DX004 (ip), vehicle: saline with Tween-80): 89 % of control
T/C (dose: 36.0 mg/kg/injection, schedule: Q04DX004 (ip), vehicle: saline with Tween-80): 92 % of control

COC(=O)[C@@]12OC[C@]34[C@H]([C@@H](O)[C@@H]1O)[C@@]1(C)CC(=O)C(O)=C(C)[C@@H]1C[C@H]3OC(=O)[C@H](OC(=O)/C=C(\C)C(C)C)[C@@H]24
T/C (dose: 0.12 mg/kg/injection, schedule: Q04DX005 (ip), vehicle: saline): 97 % of control and 101 % of control
T/C (dose: 0.13 mg/kg/injection, schedule: Q04DX004 (ip), vehicle: saline): 97 % of control and 112 % of control and 124 % of control
T/C (dose: 0.13 mg/kg/injection, schedule: Q04DX005 (ip), vehicle: saline): 117 % of control and 122 % of control

O=C(O)[C@H](Cc1ccccc1)N1C(=O)c2ccccc2C1=O
T/C (dose: 62.5 mg/kg/injection, schedule: Q04DX004 (ip), vehicle: DMSO): 92 % of control
T/C (dose: 125.0 mg/kg/injection, schedule: Q04DX004 (ip), vehicle: DMSO): 110 % of control
T/C (dose: 250.0 mg/kg/injection, schedule: Q04DX004 (ip), vehicle: DMSO): 100 % of control
